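Values below derive from 48-hour exposures of cells grown in 96-well plates, with endpoints linearly interpolated between the two concentrations bracketing the appropriate inhibition level. GI50 marks 50% less growth.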 The source made the active and inactive calls. No stated cut-off is given here; in the data, active = GI50 up to about 1.1 µM and inactive = higher.
How the values were obtained:
Assay in all cases: DTP human tumour cell line panel, 48 h
SF-539 = system: SF-539
MDA-MB-231 = system: MDA-MB-231
IGROV-1 = system: IGROV-1
MDA-N = system: MDA-N
HCT-116 = system: HCT-116
MDA-MB-435 = system: MDA-MB-435
M14 = system: M14
CCRF-CEM = system: CCRF-CEM
OVCAR-5 = system: OVCAR-5
RPMI-8226 = system: RPMI-8226
MOLT-4 = system: MOLT-4
ACHN = system: ACHN
NCI-H23 = system: NCI-H23
NCI-H460 = system: NCI-H460
UACC-62 = system: UACC-62
T47D = system: T47D
HCC 2998 = system: HCC 2998
SNB-19 = system: SNB-19
HL-60 = system: HL-60
SF-295 = system: SF-295

In the case of O=[N+]([O-])C(=C1Nc2ccccc2N1)C(Cl)=C(Cl)Cl, the GI50 (SF-539) is reported as > 100 µM (inactive), the GI50 (MDA-MB-231) is reported as 24.8 µM (inactive) and the GI50 (IGROV-1) is reported as > 100 µM (inactive). The GI50 (MDA-N) was > 100 µM (inactive), the GI50 (HCT-116) was 88.1 µM (inactive) and the GI50 (MDA-MB-435) was 88.1 µM (inactive). For the same molecule, the GI50 (M14) was 62.5 µM (inactive), the GI50 (CCRF-CEM) was 32.4 µM (inactive) and the GI50 (OVCAR-5) was > 100 µM (inactive). The GI50 (RPMI-8226) was 70 µM (inactive), the GI50 (MOLT-4) was 19.8 µM (inactive) and the GI50 (ACHN) was > 100 µM (inactive). For the same molecule, the GI50 (NCI-H23) was 84.5 µM (inactive), the GI50 (NCI-H460) was > 100 µM (inactive) and the GI50 (UACC-62) was > 100 µM (inactive). The GI50 (T47D) was 31.1 µM (inactive), the GI50 (HCC 2998) was > 100 µM (inactive) and the GI50 (SNB-19) was > 100 µM (inactive). For the same molecule, the GI50 (HL-60) was 65.6 µM (inactive) and the GI50 (SF-295) was > 100 µM (inactive).
With COC(=O)c1cc(NC(=O)Cn2c3ccccc3c3ccccc32)cn1C the GI50 (SF-539) was 23.9 µM (inactive), the GI50 (MDA-MB-231) was 20.1 µM (inactive) and the GI50 (IGROV-1) was 24.3 µM (inactive). The GI50 (MDA-N) was > 100 µM (inactive), the GI50 (HCT-116) was 46.2 µM (inactive) and the GI50 (MDA-MB-435) was 78.5 µM (inactive). The GI50 (M14) was > 100 µM (inactive), the GI50 (CCRF-CEM) was 39.3 µM (inactive) and the GI50 (OVCAR-5) was > 100 µM (inactive). The GI50 (RPMI-8226) was 19.5 µM (inactive), the GI50 (MOLT-4) was 61 µM (inactive) and the GI50 (ACHN) was 33.7 µM (inactive). For the same molecule, the GI50 (NCI-H23) was 39.3 µM (inactive), the GI50 (NCI-H460) was 57.5 µM (inactive) and the GI50 (UACC-62) was 17.1 µM (inactive). For the same molecule, the GI50 (T47D) was > 100 µM (inactive), the GI50 (HCC 2998) was 78.9 µM (inactive) and the GI50 (SNB-19) was 39.4 µM (inactive). The GI50 (HL-60) was > 100 µM (inactive) and the GI50 (SF-295) was 26.9 µM (inactive).
C1CN(C23OC4(N5CCOCC5)C5C6CC(C7C6C4C72)C53)CCO1 (stereo not given) was tested, and the GI50 (SF-539) was > 100 µM (inactive), the GI50 (MDA-MB-231) was > 100 µM (inactive) and the GI50 (IGROV-1) was > 100 µM (inactive). For the same molecule, the GI50 (MDA-N) was > 100 µM (inactive), the GI50 (HCT-116) was > 100 µM (inactive) and the GI50 (MDA-MB-435) was > 100 µM (inactive). For the same molecule, the GI50 (M14) was > 100 µM (inactive), the GI50 (CCRF-CEM) was > 100 µM (inactive) and the GI50 (OVCAR-5) was > 100 µM (inactive). For the same molecule, the GI50 (RPMI-8226) was > 100 µM (inactive), the GI50 (MOLT-4) was > 100 µM (inactive) and the GI50 (ACHN) was > 31.6 µM (inactive). The GI50 (NCI-H23) was > 100 µM (inactive), the GI50 (NCI-H460) was > 100 µM (inactive) and the GI50 (UACC-62) was > 100 µM (inactive). The GI50 (T47D) was > 100 µM (inactive), the GI50 (HCC 2998) was > 100 µM (inactive) and the GI50 (SNB-19) was > 100 µM (inactive). For the same molecule, the GI50 (HL-60) was > 100 µM (inactive) and the GI50 (SF-295) was > 100 µM (inactive).
With C=C1CC/C=C(\C)C(=O)C[C@@H]2[C@@H]1CC2(C)C [BUDDLEDIN C] the GI50 (SF-539) was 2.31 µM (inactive), the GI50 (MDA-MB-231) was 7.53 µM (inactive) and the GI50 (IGROV-1) was 3.26 µM (inactive). For the same molecule, the GI50 (MDA-N) was 1.2 µM (inactive), the GI50 (HCT-116) was 1.17 µM (inactive) and the GI50 (MDA-MB-435) was 1.43 µM (inactive). The GI50 (M14) was 3.69 µM (inactive), the GI50 (CCRF-CEM) was 0.0944 µM (active) and the GI50 (OVCAR-5) was 9.46 µM (inactive). For the same molecule, the GI50 (RPMI-8226) was 2.02 µM (inactive), the GI50 (MOLT-4) was 0.184 µM (active) and the GI50 (ACHN) was 2.18 µM (inactive). For the same molecule, the GI50 (NCI-H23) was 5.2 µM (inactive), the GI50 (NCI-H460) was 2.62 µM (inactive) and the GI50 (UACC-62) was 5.96 µM (inactive). For the same molecule, the GI50 (T47D) was 2.31 µM (inactive), the GI50 (HCC 2998) was 3.4 µM (inactive) and the GI50 (SNB-19) was 12.6 µM (inactive). The GI50 (HL-60) was 0.129 µM (active) and the GI50 (SF-295) was 15.5 µM (inactive).
